“And” between values parts separate entries of the source, which are not always exact repeats. Identical values can stand only once. Inconclusive results and toxic doses are left out. Rule for the calls: active = survival T/C of 150% or more; inactive = T/C below 125% in these data.
Tested on: P388 leukemia ip, CD2F1 mice, survival T/C
Assay: NCI In Vivo Anticancer Drug Screen. Data for tumor model P388 Leukemia (intraperitoneal) in CD2F1 (CDF1) mice
Conditions: endpoint: median survival time, higher = longer survival
Outline: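 Mice carrying the transplanted tumor received test compound or vehicle. Survival was recorded in each group, and the value is the treated-group measurement divided by that of the vehicle-treated control group.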

[1] = dose: 50.0 mg/kg/injection, schedule: Q01DX009 (ip), vehicle: saline with Tween-80
[2] = dose: 100.0 mg/kg/injection, schedule: Q01DX009 (ip), vehicle: saline with Tween-80
[3] = dose: 50.0 mg/kg/injection, schedule: Q01DX005 (ip), vehicle: saline with Tween-80
[4] = dose: 100.0 mg/kg/injection, schedule: Q01DX005 (ip), vehicle: saline with Tween-80
[5] = dose: 200.0 mg/kg/injection, schedule: Q01DX005 (ip), vehicle: saline with Tween-80
[6] = dose: 200.0 mg/kg/injection, schedule: Q01DX009 (ip), vehicle: saline with Tween-80
[7] = dose: 50.0 mg/kg/injection, schedule: Q04DX003 (ip), vehicle: saline with Tween-80
[8] = dose: 100.0 mg/kg/injection, schedule: Q04DX003 (ip), vehicle: saline with Tween-80
[9] = dose: 200.0 mg/kg/injection, schedule: Q04DX003 (ip), vehicle: saline with Tween-80
[10] = dose: 60.0 mg/kg/injection, schedule: Q01DX005 (ip), vehicle: saline with Tween-80
[11] = dose: 120.0 mg/kg/injection, schedule: Q01DX005 (ip), vehicle: saline with Tween-80
[12] = dose: 240.0 mg/kg/injection, schedule: Q01DX005 (ip), vehicle: saline with Tween-80

Measured: T/C

O=c1[nH]c2cc(Cl)ccc2nc1/C=C(\O)c1ccc(N2CCN(c3ccc(/C(O)=C/c4nc5ccc(Cl)cc5[nH]c4=O)cc3)CC2)cc1
inactive: dose: 60.0 mg/kg/injection, schedule: Q01DX005 (ip), vehicle: Klucel + Tween-80 98 % of control | dose: 120.0 mg/kg/injection, schedule: Q01DX005 (ip), vehicle: Klucel + Tween-80 93 % of control | dose: 240.0 mg/kg/injection, schedule: Q01DX005 (ip), vehicle: Klucel + Tween-80 86 % of control

C=C(C)C(C)CC(NC(C)=O)C(=O)OC (centres undefined)
inactive: dose: 62.5 mg/kg/injection, schedule: Q04DX002 (ip), vehicle: Klucel (hydroxypropylcellulose) (HPC) 96 % of control | dose: 125.0 mg/kg/injection, schedule: Q04DX002 (ip), vehicle: Klucel (hydroxypropylcellulose) (HPC) 99 % of control | dose: 250.0 mg/kg/injection, schedule: Q04DX002 (ip), vehicle: Klucel (hydroxypropylcellulose) (HPC) 93 % of control

C=C(CCCC)[Se]c1ccccc1
inactive: dose: 25.0 mg/kg/injection, schedule: Q01DX009 (ip), vehicle: saline with Tween-80 103 % of control and 107 % of control | [1] 107 % of control and 95 % of control | [2] 101 % of control and 117 % of control

COC(=N)CCCCC(=N)OC
inactive: dose: 50.0 mg/kg/injection, schedule: Q01DX005 (ip), vehicle: saline 92 % of control | dose: 100.0 mg/kg/injection, schedule: Q01DX005 (ip), vehicle: saline 97 % of control | dose: 200.0 mg/kg/injection, schedule: Q01DX005 (ip), vehicle: saline 101 % of control

CCN(CC)CCOC(=O)c1ccc(NC(=O)COc2ccc3ccccc3c2)cc1
inactive: dose: 25.0 mg/kg/injection, schedule: Q01DX009 (ip), vehicle: other 88 % of control and 97 % of control | dose: 50.0 mg/kg/injection, schedule: Q01DX009 (ip), vehicle: other 88 % of control and 102 % of control | dose: 100.0 mg/kg/injection, schedule: Q01DX009 (ip), vehicle: other 86 % of control and 105 % of control | dose: 200.0 mg/kg/injection, schedule: Q01DX009 (ip), vehicle: other 102 % of control and 97 % of control | dose: 400.0 mg/kg/injection, schedule: Q01DX009 (ip), vehicle: other 100 % of control and 109 % of control

COC1/C=C\C=C(/C)C(=O)NC2=CC(=O)C(NCCCl)=C(CC(C)CC(OC)C(O)C(C)/C=C(/C)C1OC(N)=O)C2=O (centres undefined)
inactive: dose: 1.5 mg/kg/injection, schedule: Q01DX009 (ip), vehicle: DMSO 107 % of control | dose: 3.0 mg/kg/injection, schedule: Q01DX009 (ip), vehicle: DMSO 108 % of control | dose: 3.12 mg/kg/injection, schedule: Q04DX002 (ip), vehicle: saline with Tween-80 115 % of control | dose: 5.0 mg/kg/injection, schedule: Q04DX002 (ip), vehicle: saline with Tween-80 111 % of control | dose: 6.0 mg/kg/injection, schedule: Q01DX009 (ip), vehicle: DMSO 111 % of control | dose: 6.25 mg/kg/injection, schedule: Q04DX002 (ip), vehicle: saline with Tween-80 123 % of control | dose: 12.0 mg/kg/injection, schedule: Q01DX009 (ip), vehicle: DMSO 117 % of control | dose: 12.5 mg/kg/injection, schedule: Q04DX002 (ip), vehicle: saline with Tween-80 119 % of control | dose: 20.0 mg/kg/injection, schedule: Q04DX002 (ip), vehicle: saline with Tween-80 122 % of control

COc1ccc(N=C(C)C2C(=O)c3ccccc3C2=O)cc1
inactive: dose: 50.0 mg/kg/injection, schedule: Q01DX005 (ip), vehicle: DMSO 100 % of control | [3] 113 % of control | dose: 100.0 mg/kg/injection, schedule: Q01DX005 (ip), vehicle: DMSO 102 % of control | [4] 104 % of control | dose: 200.0 mg/kg/injection, schedule: Q01DX005 (ip), vehicle: DMSO 102 % of control | [5] 95 % of control | dose: 400.0 mg/kg/injection, schedule: Q01DX005 (ip), vehicle: DMSO 117 % of control | dose: 800.0 mg/kg/injection, schedule: Q01DX005 (ip), vehicle: DMSO 99 % of control

O=C(O)c1cc(O)c(O)c(OC(=O)c2cc(O)c(O)c(O)c2CNc2ccc3cc(S(=O)(=O)O)cc(S(=O)(=O)O)c3c2)c1
inactive: [3] 110 % of control | [4] 115 % of control | [5] 112 % of control

CC(O)CNc1n[nH]c(=O)c2ccccc12 (centres undefined)
inactive: [1] 101 % of control | [2] 104 % of control | [6] 94 % of control

O=C(Nc1ccccc1)Sc1nnc2c3ccccc3c3ccccc3c2n1
inactive: [1] 100 % of control | [2] 101 % of control | [6] 99 % of control

CN(C(=O)C1(C)OC1c1ccccc1)c1ccccc1 (centres undefined)
inactive: dose: 100.0 mg/kg/injection, schedule: Q04DX003 (ip), vehicle: Klucel (hydroxypropylcellulose) (HPC) 96 % of control | dose: 200.0 mg/kg/injection, schedule: Q04DX003 (ip), vehicle: Klucel (hydroxypropylcellulose) (HPC) 100 % of control | dose: 400.0 mg/kg/injection, schedule: Q04DX003 (ip), vehicle: Klucel (hydroxypropylcellulose) (HPC) 94 % of control

CCN(CC)CCCC(C)Nc1c2ccc(C)cc2nc2ccc(OC)cc12 (centres undefined)
inactive: dose: 12.5 mg/kg/injection, schedule: Q01DX009 (ip), vehicle: saline with Tween-80 103 % of control | [1] 112 % of control

COC(=O)C1CC2C(=O)N(C)C(Br)C(Br)C12 (centres undefined)
inactive: dose: 100.0 mg/kg/injection, schedule: Q04DX002 (ip), vehicle: saline 101 % of control | dose: 200.0 mg/kg/injection, schedule: Q04DX002 (ip), vehicle: saline 95 % of control

O=C(O)/C=C/C(=O)Nc1ccc(N=Nc2ccccc2)cc1
inactive: [7] 104 % of control | [8] 100 % of control | [9] 90 % of control

Cc1ccc(NC(=O)Oc2ccc(C#N)cc2)cc1Cl
inactive: dose: 60.0 mg/kg/injection, schedule: Q01DX005 (ip), vehicle: Klucel (hydroxypropylcellulose) (HPC) 118 % of control | dose: 120.0 mg/kg/injection, schedule: Q01DX005 (ip), vehicle: Klucel (hydroxypropylcellulose) (HPC) 111 % of control | dose: 240.0 mg/kg/injection, schedule: Q01DX005 (ip), vehicle: Klucel (hydroxypropylcellulose) (HPC) 118 % of control

COC(=O)c1nnn(-c2ccc(S(N)(=O)=O)cc2)c1N
inactive: dose: 60.0 mg/kg/injection, schedule: Q01DX005 (ip), vehicle: saline 98 % of control | dose: 120.0 mg/kg/injection, schedule: Q01DX005 (ip), vehicle: saline 104 % of control | dose: 240.0 mg/kg/injection, schedule: Q01DX005 (ip), vehicle: saline 98 % of control

COC(=O)NN(C(=O)OC)C12CCCC1N(C(=O)OC)N(C(=O)OC)c1c2ccc2cc(OC)ccc12 (centres undefined)
inactive: dose: 100.0 mg/kg/injection, schedule: Q04DX002 (ip), vehicle: Klucel (hydroxypropylcellulose) (HPC) 99 % of control | dose: 200.0 mg/kg/injection, schedule: Q04DX002 (ip), vehicle: Klucel (hydroxypropylcellulose) (HPC) 92 % of control | dose: 400.0 mg/kg/injection, schedule: Q04DX002 (ip), vehicle: Klucel (hydroxypropylcellulose) (HPC) 90 % of control

O=C(O)c1ccccc1-c1ccccc1[N+](=O)[O-]
inactive: dose: 50.0 mg/kg/injection, schedule: Q01DX009 (ip), vehicle: saline 88 % of control | dose: 100.0 mg/kg/injection, schedule: Q01DX009 (ip), vehicle: saline 97 % of control | dose: 200.0 mg/kg/injection, schedule: Q01DX009 (ip), vehicle: saline 97 % of control

CCC(c1ccc(O)cc1)C(CC)c1ccc(OCC(N)=O)cc1 (centres undefined)
inactive: [10] 92 % of control | [11] 94 % of control | [12] 94 % of control

CC1CCc2c(c3ccc(O)cc3oc2=O)C1 (centres undefined)
inactive: dose: 50.0 mg/kg/injection, schedule: Q01DX005 (ip), vehicle: Klucel (hydroxypropylcellulose) (HPC) 101 % of control | dose: 100.0 mg/kg/injection, schedule: Q01DX005 (ip), vehicle: Klucel (hydroxypropylcellulose) (HPC) 96 % of control | dose: 200.0 mg/kg/injection, schedule: Q01DX005 (ip), vehicle: Klucel (hydroxypropylcellulose) (HPC) 92 % of control

Cc1cc(C(=O)O)ccc1S(=O)(=O)F
inactive: [10] 101 % of control | [11] 105 % of control

COc1ccc(-c2oc3cc(OC)c(OC)c(OC)c3c(=O)c2O)cc1O
inactive: dose: 25.0 mg/kg/injection, schedule: Q04DX003 (ip), vehicle: saline with Tween-80 87 % of control | [7] 105 % of control | [8] 97 % of control | [9] 99 % of control

Oc1ccc(O)c(-n2nc3ccccc3n2)c1
inactive: [10] 104 % of control | [11] 103 % of control | [12] 100 % of control

O=C1OC(=O)c2ccc3c4c(ccc1c24)C(=O)OC3=O
inactive: [3] 104 % of control | [4] 105 % of control

CC(C)C(C#N)(C(=O)O)C(C)C
inactive: [1] 95 % of control | [2] 92 % of control

— PubChem BioAssay AID330 (DTP/NCI, 2004)
